In patent publication US20240376100A1 (Redona Therapeutics, Inc., priority 2021, published 2024):
pIC50: −log10 of the molar value.

Biological target: PAPD5 enzyme (Homo sapiens, UniProt Q8NDF8)
Assay: PAPD5 assay (AMP incorporation onto 3'-terminus of RNA substrate, fluorescence quench)
Format: biochemical
Conditions: PAPD5 protein 0.3 nM, ATP 50 μM, 30 minutes preincubation, room temperature; read-out: Potency PAPD5 IC50
Summary of the method: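 Enzyme at 0.3 nM with 50 μM ATP, pH 7.3 HEPES buffer, preincubated with compound 30 minutes at room temperature; 5 nM 5′-fluorescein RNA substrate and 20 nM TAMRA quench probe then added. Initial rates from kinetic fluorescein decrease over ~90 minutes; IC50 by four-parameter fit.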

Chain of PAPD5 enzyme (Q8NDF8 whole entry): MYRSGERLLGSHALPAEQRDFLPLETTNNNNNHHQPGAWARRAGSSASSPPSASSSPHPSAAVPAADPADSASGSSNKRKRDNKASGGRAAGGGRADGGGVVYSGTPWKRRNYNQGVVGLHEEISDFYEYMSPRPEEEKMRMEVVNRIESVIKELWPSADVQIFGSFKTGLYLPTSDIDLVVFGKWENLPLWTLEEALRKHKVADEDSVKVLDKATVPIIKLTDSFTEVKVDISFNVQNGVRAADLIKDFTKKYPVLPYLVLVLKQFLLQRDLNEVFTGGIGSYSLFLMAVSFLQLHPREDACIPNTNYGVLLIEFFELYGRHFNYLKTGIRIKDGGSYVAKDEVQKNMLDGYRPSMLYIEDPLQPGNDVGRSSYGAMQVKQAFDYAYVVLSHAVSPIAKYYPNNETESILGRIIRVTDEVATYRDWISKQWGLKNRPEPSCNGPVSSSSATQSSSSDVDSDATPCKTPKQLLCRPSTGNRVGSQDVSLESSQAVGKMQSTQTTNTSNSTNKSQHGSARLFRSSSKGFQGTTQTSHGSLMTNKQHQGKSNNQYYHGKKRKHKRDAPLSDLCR

SMILES	pIC50
Cc1cc(NC(=O)OC(C)(C)C)ncc1-n1cc(C(=O)O)c(=O)c2cc(Cl)c(N3CCc4ccncc4C3)nc21 [Example 187, 1-(6-((tert-butoxycarbonyl)amino)-4-methylpyridin-3-yl)-6-chloro-7-(3,4-dihydro-2,7-naphthyridin-2(1H)-yl)-4-oxo-1,4-dihydro-1,8-naphthyridine-3-carboxylic acid]	≥ 6.00
Cc1cc(N2CC(N(C)C)C2)ncc1-n1cc(C(=O)O)c(=O)c2cc(Cl)c(N3Cc4cccnc4C3)nc21 [Example 188, 6-chloro-7-(5,7-dihydro-6H-pyrrolo[3,4-b]pyridin-6-yl)-1-(6-(3-(dimethylamino)azetidin-1-yl)-4-meth-ylpyridin-3-yl)-4-oxo-1,4-dihydro-1,8-naphthyridine-3-carboxylic acid]	≥ 6.00
Cc1cc(N2CCC2)ncc1-n1cc(C(=O)O)c(=O)c2cc(Cl)c(N3Cc4cccnc4C3)cc21 [Example 189, 1-(6-(azetidin-1-yl)-4-methylpyridin-3-yl)-6-chloro-7-(5,7-dihydro-6H-pyrrolo[3,4-b]pyridin-6-yl)-4-oxo-1,4-dihydroquinoline-3-carboxylic acid]	≥ 6.00
Cc1cc(N2CCC2)ncc1-n1cc(C(=O)O)c(=O)c2cc(F)c(N3Cc4cccnc4C3)cc21 [Example 190, 1-(6-(azetidin-1-yl)-4-methylpyridin-3-yl)-7-(5,7-dihydro-6H-pyrrolo[3,4-b]pyridin-6-yl)-6-fluoro-4-oxo-1,4-dihydroquinoline-3-carboxylic acid]	≥ 6.00
Cc1cc(N(C)CCN(C)C)ncc1-n1cc(C(=O)O)c(=O)c2cc(Cl)c(N3Cc4cccnc4C3)nc21 [Example 192, 6-chloro-7-(5,7-dihydro-6H-pyrrolo[3,4-b]pyridin-6-yl)-1-(6-((2-(dimethylamino)ethyl)(methyl)amino)-4-methylpyridin-3-yl)-4-oxo-1,4-dihydro-1,8-naphthyridine-3-carboxylic acid]	≥ 6.00
Nc1ccc(-n2cc(C(=O)O)c(=O)c3cc(Cl)c(N4Cc5ccccc5C4)cc32)cn1 [Example 194, 1-(6-aminopyridin-3-yl)-6-chloro-7-(isoindolin-2-yl)-4-oxo-1,4-dihydroquinoline-3-carboxylic acid]	≥ 6.00
Nc1ccc(-n2cc(C(=O)O)c(=O)c3cc(F)c(N4Cc5ccccc5C4)cc32)cn1 [Example 195, 1-(6-aminopyridin-3-yl)-6-fluoro-7-(isoindolin-2-yl)-4-oxo-1,4-dihydroquinoline-3-carboxylic acid]	≥ 6.00
Cc1cc(NC(=O)OC(C)(C)C)ncc1-n1cc(C(=O)O)c(=O)c2cc(Cl)c(N3CCc4cnccc4C3)nc21 [Example 196, 1-(6-((tert-butoxycarbonyl)amino)-4-methylpyridin-3-yl)-6-chloro-7-(3,4-dihydro-2,6-naphthyridin-2(1H)-yl)-4-oxo-1,4-dihydro-1,8-naphthyridine-3-carboxylic acid]	≥ 6.00
Cc1cc(N)ncc1-n1cc(C(=O)O)c(=O)c2cc(Cl)c(N3CCc4cnccc4C3)nc21 [Example 197, 1-(6-amino-4-methylpyridin-3-yl)-6-chloro-7-(3,4-dihydro-2,6-naphthyridin-2(1H)-yl)-4-oxo-1,4-dihydro-1,8-naphthyridine-3-carboxylic acid]	≥ 6.00
Cc1cc(N)ncc1-n1cc(C(=O)O)c(=O)c2cc(Cl)c(N3CCc4ncncc4C3)nc21 [Example 198, 1-(6-amino-4-methylpyridin-3-yl)-6-chloro-7-(7,8-dihydropyrido[4,3-d]pyrimidin-6(5H)-yl)-4-oxo-1,4-dihydro-1,8-naphthyridine-3-carboxylic acid]	≥ 6.00
CCCc1cc(N)ncc1-n1cc(C(=O)O)c(=O)c2cc(Cl)c(N3Cc4cccnc4C3)cc21 [Example 199, 1-(6-amino-4-propylpyridin-3-yl)-6-chloro-7-(5,7-dihydro-6H-pyrrolo[3,4-b]pyridin-6-yl)-4-oxo-1,4-dihydroquinoline-3-carboxylic acid]	≥ 6.00
Cc1cc(NS(C)(=O)=O)ncc1-n1cc(C(=O)O)c(=O)c2cc(Cl)c(N3Cc4cccnc4C3)nc21 [Example 200, 6-chloro-7-(5,7-dihydro-6H-pyrrolo[3,4-b]pyridin-6-yl)-1-(4-methyl-6-(methylsulfonamido)pyridin-3-yl)-4-oxo-1,4-dihydro-1,8-naphthyridine-3-carboxylic acid]	≥ 6.00
O=C(O)c1cn(-c2cnc(N3CCC3)cn2)c2cc(N3Cc4cccnc4C3)c(Cl)cc2c1=O [Example 201, 1-(5-(azetidin-1-yl)pyrazin-2-yl)-6-chloro-7-(5,7-dihydro-6H-pyrrolo[3,4-b]pyridin-6-yl)-4-oxo-1,4-dihydroquinoline-3-carboxylic acid]	≥ 6.00
